Our source for the inhibition values is PMC6008489 (Bioorganic & Medicinal Chemistry, 2018).

For one assay, the target named is T1, AKT2 (Homo sapiens, UniProt P31751).
T1 construct: purchased Perkin Elmer ProfilerPro assay kit 1
The assay is described as follows: 26-kinase panel mobility shift assay, single concentration. The settings on record: read-out: % Inhibition AKT2. The assay is classed as biochemical.

The target of a further assay is T2, LCK (Homo sapiens, UniProt P06239).
T2 construct: purchased Perkin Elmer (ProfilerPro assay kit 1)
T2 sequence (P06239 whole entry): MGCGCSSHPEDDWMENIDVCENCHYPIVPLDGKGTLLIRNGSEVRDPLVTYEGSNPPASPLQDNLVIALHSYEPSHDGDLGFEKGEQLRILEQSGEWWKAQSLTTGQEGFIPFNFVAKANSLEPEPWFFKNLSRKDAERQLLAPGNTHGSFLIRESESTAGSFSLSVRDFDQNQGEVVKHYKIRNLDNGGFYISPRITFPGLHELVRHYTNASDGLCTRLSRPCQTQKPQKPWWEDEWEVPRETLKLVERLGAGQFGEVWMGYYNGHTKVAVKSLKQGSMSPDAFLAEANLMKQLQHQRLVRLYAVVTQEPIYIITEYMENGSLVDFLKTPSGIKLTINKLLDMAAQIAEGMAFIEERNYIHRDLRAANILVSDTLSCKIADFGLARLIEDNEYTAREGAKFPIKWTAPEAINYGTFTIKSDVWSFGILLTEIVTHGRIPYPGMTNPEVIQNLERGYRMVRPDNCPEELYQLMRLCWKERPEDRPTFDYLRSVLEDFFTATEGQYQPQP
The assay is described as above. The class given is biochemical. Particulars: read-out: % Inhibition LCK.

The target in the next assay is T3, MSK1 (Homo sapiens, UniProt O75582).
T3 construct: purchased Perkin Elmer (ProfilerPro assay kit 1)
T3 sequence (O75582 whole entry): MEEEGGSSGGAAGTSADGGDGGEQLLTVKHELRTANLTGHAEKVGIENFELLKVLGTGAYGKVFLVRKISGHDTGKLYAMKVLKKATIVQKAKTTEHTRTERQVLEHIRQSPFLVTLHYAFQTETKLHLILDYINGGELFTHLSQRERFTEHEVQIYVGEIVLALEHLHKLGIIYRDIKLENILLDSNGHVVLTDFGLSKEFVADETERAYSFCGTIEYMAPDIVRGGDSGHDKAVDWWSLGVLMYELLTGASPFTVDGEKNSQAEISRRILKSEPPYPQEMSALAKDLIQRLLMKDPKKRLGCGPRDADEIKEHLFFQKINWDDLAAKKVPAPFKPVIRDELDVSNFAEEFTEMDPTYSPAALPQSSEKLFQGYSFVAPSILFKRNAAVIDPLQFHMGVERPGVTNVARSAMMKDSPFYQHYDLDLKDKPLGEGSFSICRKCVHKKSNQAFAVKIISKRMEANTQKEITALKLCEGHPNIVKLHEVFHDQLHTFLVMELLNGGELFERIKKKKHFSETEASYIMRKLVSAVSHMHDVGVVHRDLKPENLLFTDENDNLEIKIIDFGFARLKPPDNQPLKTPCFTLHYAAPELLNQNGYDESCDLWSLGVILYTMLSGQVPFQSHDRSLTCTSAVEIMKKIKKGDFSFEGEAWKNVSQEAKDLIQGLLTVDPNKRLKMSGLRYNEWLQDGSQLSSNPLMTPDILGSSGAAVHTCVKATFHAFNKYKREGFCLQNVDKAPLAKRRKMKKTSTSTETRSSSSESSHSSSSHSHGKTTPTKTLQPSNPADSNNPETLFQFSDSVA
Described as above. The settings on record: read-out: % Inhibition MSK1. The assay is classed as biochemical.

Another assay deals with T4, SRC (Homo sapiens, UniProt P12931).
T4 construct: purchased Perkin Elmer (ProfilerPro assay kit 1)
T4 sequence (P12931 whole entry): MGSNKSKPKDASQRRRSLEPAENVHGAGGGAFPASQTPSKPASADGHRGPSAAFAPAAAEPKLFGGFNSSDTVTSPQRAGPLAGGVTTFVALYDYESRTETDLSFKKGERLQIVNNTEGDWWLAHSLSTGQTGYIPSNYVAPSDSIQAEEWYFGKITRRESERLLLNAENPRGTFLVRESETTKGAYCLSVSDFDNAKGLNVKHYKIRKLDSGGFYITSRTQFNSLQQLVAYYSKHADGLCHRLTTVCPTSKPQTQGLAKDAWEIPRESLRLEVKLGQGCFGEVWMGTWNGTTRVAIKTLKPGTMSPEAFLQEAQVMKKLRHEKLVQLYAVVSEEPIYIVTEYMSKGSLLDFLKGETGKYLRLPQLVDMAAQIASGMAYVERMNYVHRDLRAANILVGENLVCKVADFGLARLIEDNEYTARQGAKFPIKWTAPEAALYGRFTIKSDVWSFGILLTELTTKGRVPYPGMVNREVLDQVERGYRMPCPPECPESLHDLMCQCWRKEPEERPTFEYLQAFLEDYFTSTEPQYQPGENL
The assay is described as above. The class given is biochemical. The settings on record: read-out: % Inhibition SRC.

The target in a further assay is T5, AKT1 (Homo sapiens, UniProt P31749).
T5 construct: purchased Perkin Elmer ProfilerPro assay kit 1
T5 sequence (P31749 whole entry): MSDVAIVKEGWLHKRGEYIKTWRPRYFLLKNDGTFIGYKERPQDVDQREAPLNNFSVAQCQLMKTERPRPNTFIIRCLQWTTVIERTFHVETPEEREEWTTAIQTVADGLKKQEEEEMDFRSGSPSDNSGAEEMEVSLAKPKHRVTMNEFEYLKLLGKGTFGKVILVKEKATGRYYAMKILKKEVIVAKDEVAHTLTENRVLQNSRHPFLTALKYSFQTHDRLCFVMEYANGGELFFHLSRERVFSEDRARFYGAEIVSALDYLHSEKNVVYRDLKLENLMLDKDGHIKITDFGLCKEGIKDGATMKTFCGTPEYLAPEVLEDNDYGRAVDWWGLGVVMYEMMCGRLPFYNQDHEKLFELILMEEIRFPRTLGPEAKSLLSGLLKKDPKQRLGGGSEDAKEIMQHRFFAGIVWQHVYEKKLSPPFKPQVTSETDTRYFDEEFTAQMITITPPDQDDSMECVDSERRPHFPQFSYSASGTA
The description is as above. The class given is biochemical. The settings on record: read-out: % Inhibition AKT1.

Another assay addresses T6, p38 (Homo sapiens, UniProt Q16539).
T6 construct: purchased Perkin Elmer (ProfilerPro assay kit 1)
The assay is described as above. The class given is biochemical. The settings on record: read-out: % Inhibition p38.

For another assay, the target named is T7, MPS1 (Homo sapiens, UniProt P33981).
T7 sequence (P33981 1-857): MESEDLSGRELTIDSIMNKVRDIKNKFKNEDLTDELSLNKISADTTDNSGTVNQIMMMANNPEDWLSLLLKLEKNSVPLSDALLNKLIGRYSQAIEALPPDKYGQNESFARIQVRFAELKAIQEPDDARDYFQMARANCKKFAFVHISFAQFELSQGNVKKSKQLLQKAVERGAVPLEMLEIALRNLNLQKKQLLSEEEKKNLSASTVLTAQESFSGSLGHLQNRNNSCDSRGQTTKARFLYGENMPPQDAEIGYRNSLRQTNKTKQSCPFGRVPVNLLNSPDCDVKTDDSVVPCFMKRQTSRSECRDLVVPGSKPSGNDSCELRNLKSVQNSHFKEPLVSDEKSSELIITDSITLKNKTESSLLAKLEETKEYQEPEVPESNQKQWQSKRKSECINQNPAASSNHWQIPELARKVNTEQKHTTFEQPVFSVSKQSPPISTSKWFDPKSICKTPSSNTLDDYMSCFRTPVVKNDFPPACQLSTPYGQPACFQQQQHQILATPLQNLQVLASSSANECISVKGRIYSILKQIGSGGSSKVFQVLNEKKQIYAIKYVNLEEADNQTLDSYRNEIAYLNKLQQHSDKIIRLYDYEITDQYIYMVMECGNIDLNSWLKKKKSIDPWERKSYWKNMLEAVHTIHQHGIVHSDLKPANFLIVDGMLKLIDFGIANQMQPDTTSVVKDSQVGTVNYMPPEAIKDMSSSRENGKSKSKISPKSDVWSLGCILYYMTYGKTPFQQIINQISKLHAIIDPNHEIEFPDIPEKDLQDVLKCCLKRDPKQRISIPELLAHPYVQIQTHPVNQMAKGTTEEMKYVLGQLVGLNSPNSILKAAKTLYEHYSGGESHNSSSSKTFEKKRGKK
The assay is described as follows: biochemical. The settings on record: read-out: % Inhibition MPS1.

A further assay addresses T8, PRAK (Homo sapiens, UniProt Q8IW41).
T8 construct: purchased Perkin Elmer (ProfilerPro assay kit 1)
T8 sequence (Q8IW41 1-473): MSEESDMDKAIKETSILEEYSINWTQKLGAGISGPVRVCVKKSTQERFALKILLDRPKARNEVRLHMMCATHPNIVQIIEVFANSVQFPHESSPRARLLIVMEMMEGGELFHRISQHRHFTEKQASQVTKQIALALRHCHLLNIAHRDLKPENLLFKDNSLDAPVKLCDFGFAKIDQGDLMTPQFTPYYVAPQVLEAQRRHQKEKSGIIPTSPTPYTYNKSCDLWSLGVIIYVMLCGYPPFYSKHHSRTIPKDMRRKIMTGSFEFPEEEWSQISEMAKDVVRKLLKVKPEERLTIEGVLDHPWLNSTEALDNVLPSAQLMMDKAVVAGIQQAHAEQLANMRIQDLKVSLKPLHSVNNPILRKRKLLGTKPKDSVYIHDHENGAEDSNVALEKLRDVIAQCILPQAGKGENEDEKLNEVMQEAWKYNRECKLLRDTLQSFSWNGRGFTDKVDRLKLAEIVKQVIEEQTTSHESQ
The assay is described as follows: 26-kinase panel mobility shift assay, single concentration. Particulars: read-out: % Inhibition PRAK. The class given is biochemical.

A further assay addresses T9, PKD2 (Homo sapiens, UniProt Q9BZL6).
T9 construct: purchased Perkin Elmer (ProfilerPro assay kit 1)
T9 sequence (Q9BZL6 1-878): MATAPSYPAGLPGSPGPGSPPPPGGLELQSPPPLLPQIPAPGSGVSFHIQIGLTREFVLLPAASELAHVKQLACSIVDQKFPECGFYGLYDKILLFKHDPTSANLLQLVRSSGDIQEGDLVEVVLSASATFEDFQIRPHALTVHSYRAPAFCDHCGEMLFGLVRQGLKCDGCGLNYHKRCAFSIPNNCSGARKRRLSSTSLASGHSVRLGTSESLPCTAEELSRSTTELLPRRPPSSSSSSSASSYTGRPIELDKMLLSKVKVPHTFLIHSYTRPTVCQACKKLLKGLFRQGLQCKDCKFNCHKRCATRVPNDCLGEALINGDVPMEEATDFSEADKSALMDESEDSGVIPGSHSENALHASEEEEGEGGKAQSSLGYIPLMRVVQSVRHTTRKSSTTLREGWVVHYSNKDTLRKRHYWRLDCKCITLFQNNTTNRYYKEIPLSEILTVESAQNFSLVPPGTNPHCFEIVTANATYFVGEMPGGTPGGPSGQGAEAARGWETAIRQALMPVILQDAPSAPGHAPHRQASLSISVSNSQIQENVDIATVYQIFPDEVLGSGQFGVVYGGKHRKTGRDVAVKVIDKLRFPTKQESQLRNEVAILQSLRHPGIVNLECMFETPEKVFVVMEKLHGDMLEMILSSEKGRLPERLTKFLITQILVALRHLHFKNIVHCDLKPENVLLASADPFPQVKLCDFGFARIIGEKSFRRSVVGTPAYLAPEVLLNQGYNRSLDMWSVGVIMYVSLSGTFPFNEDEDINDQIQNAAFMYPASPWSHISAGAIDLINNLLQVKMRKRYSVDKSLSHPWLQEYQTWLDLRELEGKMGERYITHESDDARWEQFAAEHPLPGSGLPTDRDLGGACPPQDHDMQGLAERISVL
The assay is described as above. The class given is biochemical. The settings on record: read-out: % Inhibition PKD2.

A further assay addresses AurB (Homo sapiens, UniProt Q96GD4). The description is as above. The assay is classed as biochemical. Particulars: read-out: % Inhibition AurB.
For another assay, the target named is T10, Erk1 (Homo sapiens, UniProt P27361).
T10 construct: purchased Perkin Elmer (ProfilerPro assay kit 1)
T10 sequence (P27361 whole entry): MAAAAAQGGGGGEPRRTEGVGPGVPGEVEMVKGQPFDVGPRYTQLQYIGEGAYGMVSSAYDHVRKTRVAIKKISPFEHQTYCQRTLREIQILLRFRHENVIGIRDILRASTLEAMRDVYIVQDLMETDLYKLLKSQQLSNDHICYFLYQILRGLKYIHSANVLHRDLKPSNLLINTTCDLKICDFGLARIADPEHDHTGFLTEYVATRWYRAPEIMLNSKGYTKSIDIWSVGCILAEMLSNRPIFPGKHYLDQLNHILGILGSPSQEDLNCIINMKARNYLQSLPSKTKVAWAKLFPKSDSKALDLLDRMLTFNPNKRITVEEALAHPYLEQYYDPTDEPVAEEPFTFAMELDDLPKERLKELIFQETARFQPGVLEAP
Described as above. The class given is biochemical. Particulars: read-out: % Inhibition Erk1.

Where two headings read alike, the source gives them in different places.

T6 sequence (Q16539 whole entry): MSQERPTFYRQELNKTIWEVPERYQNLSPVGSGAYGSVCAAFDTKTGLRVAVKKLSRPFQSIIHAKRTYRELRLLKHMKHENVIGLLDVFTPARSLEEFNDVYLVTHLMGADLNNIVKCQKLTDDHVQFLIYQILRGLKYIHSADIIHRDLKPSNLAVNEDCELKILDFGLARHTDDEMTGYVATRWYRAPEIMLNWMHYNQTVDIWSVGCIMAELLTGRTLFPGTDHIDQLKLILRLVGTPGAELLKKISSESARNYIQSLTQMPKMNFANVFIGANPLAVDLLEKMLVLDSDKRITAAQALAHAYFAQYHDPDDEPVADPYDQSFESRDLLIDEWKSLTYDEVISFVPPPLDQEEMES
Chain of AurB (Q96GD4 whole entry): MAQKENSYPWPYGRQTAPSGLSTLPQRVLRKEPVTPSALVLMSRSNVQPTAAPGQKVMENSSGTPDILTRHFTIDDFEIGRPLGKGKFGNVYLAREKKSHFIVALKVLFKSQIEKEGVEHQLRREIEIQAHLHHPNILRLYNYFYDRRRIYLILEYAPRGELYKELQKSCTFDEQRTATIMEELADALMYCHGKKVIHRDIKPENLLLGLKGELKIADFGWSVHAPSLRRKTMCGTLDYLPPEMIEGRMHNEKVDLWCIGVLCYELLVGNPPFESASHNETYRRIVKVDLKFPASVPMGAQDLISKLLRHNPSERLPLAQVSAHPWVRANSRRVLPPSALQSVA
T1 sequence (P31751 whole entry): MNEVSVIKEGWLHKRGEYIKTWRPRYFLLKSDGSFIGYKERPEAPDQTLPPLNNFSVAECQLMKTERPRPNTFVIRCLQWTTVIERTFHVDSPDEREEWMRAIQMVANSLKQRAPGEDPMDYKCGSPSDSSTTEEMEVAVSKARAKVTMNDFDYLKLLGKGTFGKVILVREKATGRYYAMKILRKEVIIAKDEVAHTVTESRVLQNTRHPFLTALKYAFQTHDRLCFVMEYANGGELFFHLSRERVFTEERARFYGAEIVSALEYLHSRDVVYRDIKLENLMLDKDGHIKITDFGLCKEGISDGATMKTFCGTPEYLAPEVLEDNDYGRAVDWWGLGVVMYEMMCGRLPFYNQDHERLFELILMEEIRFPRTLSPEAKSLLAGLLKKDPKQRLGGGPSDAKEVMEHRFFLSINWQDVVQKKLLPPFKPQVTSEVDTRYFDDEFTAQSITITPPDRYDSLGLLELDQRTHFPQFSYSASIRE
Experimental for AKT1: Mobility Shift Assay Protocol
(§1) Screening of 26 kinases using a mobility shift assay
(§2) A mobility shift assay to determine kinase inhibition was carried out using a
(§3) modified version of the ProfilerPro assay kit 1 (Perkin Elmer, Coventry, UK)
(§4) including MPS1 and Aurora B. Each kit contained an enzyme plate, a substrate
(§5) plate, reconstitution buffer, 1 M DTT, protease inhibitor cocktail and termination
(§6) buffer. Test compounds were added as a solution in DMSO.
(§7) peptide phosphorylation assay was carried out as per the manufacturer’s
(§8) instructions. The electrophoretic separation and analysis of the phosphorylated
(§9) and non-phosphorylated peptides was carried out on a 4-sipper chip using a
(§10) LabChip EZReader II (Perkin Elmer). Results were expressed as % inhibition of
(§11) peptide phosphorylation relative to control wells for 0 % (no test compound) and
(§12) 100 % (no ATP) inhibition. The percentage inhibition was calculated using the
(§13) % Inhibition = [1 - (% Conversion Sample / % Conversion 0% Inhibition Control)] x 100
Experimental for AKT2: (§14) In order to test the biochemical activity of our fragment library, a panel of 26 structurally diverse protein kinases was used.
as §1, §2, §3, §4, §5, §6, §7, §8, §9, §10, §11, §12, §13
Experimental for AurB: Mobility Shift Assay Protocol
as §1, §2, §3, §4, §5, §6, §7, §8, §9, §10, §11, §12, §13
Experimental for Erk1: as §2, §3, §4, §5, §6, §7, §8, §9, §10, §11, §12, §13
Experimental for LCK: as §2, §3, §4, §5, §6, §7, §8, §9, §10, §11, §12, §13
Experimental for MPS1: as §14, §1, §2, §3, §4, §5, §6, §7, §8, §9, §10, §11, §12, §13
Experimental for MSK1: as §14
Mobility Shift Assay Protocol
as §1, §2, §3, §4, §5, §6
final concentration. […] The
as §7, §8, §9, §10, §11, §12, §13
Experimental for PKD2: as §14, §1, §2, §3, §4, §5, §6, §7, §8, §9, §10, §11, §12, §13
Experimental for PRAK: as §2, §3, §4, §5, §6
final concentration. […] The
as §7, §8, §9, §10, §11, §12, §13
Experimental for SRC: as §14, §1, §2, §3, §4, §5, §6, §7, §8, §9, §10, §11, §12, §13
Experimental for p38: as §14
Mobility Shift Assay Protocol
as §1, §2, §3, §4, §5, §6
final concentration. […] The
as §7, §8, §9, §10, §11, §12, §13

The inhibition is the relative decrease from the control value, in per cent. For the compound `O=C(Nc1cc(-c2ccncc2)c[nH]c1=O)c1ccccc1` [Compound 16, N-(2-Oxo-5-(pyridin-4-yl)-1,2-dihydropyridin-3-yl)benzamide], the inhibition at 30 µM at AKT2 came out at 4%; at LCK, 45%; on MSK1, 1%; at SRC it was 60%; on AKT1, 12%; at p38 it was 4%. Moreover, the inhibition at 30 µM at MPS1 (compound at 30 µM) came out at 62%; at PRAK, 1%; at PKD2, 30%; on AurB, 24%; at Erk1 it was 12%.

`CN1CCN(c2ccc(C(=O)Nc3cc(-c4ccncc4)c[nH]c3=O)cc2)CC1` [Compound 22]: the inhibition at 30 µM was found to be 13% at AKT2; 97% on LCK; 8% on MSK1; 98% at SRC; 13% at AKT1; 6% on p38. Also, the inhibition at 30 µM is 88% at MPS1; 10% at PRAK; 46% on PKD2; 71% on AurB; 0% at Erk1.

In the case of `O=C(Nc1cc(-c2ccnc(NC3CC3)n2)c[nH]c1=O)c1ccccc1` [Compound 24], the inhibition at 30 µM at AKT2 came to 91%; at LCK it was 75%; at MSK1, 83%; on SRC it was 99%; on AKT1, 73%; at p38 it was 36%. For the same compound, the inhibition at 30 µM was found to be 76% at MPS1 (compound at 30 µM); 71% at PRAK; 69% at PKD2; 91% at AurB; 33% at Erk1.
